# Measured values: ChEMBL document CHEMBL5104172, “Design, synthesis, and antibacterial activity of derivatives of Tryptophanyl-tRNA synthetase inhibitor indolmycin” (Eur J Med Chem, 2022)
# What was measured:
# Type in all cases: functional
# Staphylococcus aureus [1] = assay: Antibacterial activity against methicillin-sensitive Staphylococcus aureus MSSA17-2 measured by liquid dilution method
# [2] = system: Staphylococcus epidermidis; assay: Antibacterial activity against methicillin-resistant Staphylococcus epidermidis MRSE17-1 measured by liquid dilution method
# Enterococcus faecium [3] = assay: Antibacterial activity against Enterococcus faecium EFM17-2 measured by liquid dilution method
# Staphylococcus aureus [4] = assay: Antibacterial activity against Staphylococcus aureus ATCC 29213 measured by liquid dilution method
# [5] = system: Staphylococcus epidermidis; assay: Antibacterial activity against methicillin-resistant Staphylococcus epidermidis MRSE17-2 measured by liquid dilution method
# Staphylococcus aureus [6] = assay: Antibacterial activity against methicillin-sensitive Staphylococcus aureus MSSA17-1 measured by liquid dilution method
# Staphylococcus aureus [7] = assay: Antibacterial activity against methicillin-resistant Staphylococcus aureus ATCC 33591 measured by liquid dilution method
# Enterococcus faecalis [8] = assay: Antibacterial activity against Enterococcus faecalis EFA17-1 measured by liquid dilution method
# Staphylococcus aureus [9] = assay: Antibacterial activity against methicillin-resistant Staphylococcus aureus MRSA17-6 measured by liquid dilution method
# [10] = system: Staphylococcus epidermidis; assay: Antibacterial activity against methicillin-resistant Staphylococcus epidermidis MRSE17-4 measured by liquid dilution method
# [11] = system: Staphylococcus epidermidis; assay: Antibacterial activity against methicillin-resistant Staphylococcus epidermidis MRSE17-3 measured by liquid dilution method
# Staphylococcus aureus [12] = assay: Antibacterial activity against vancomycin-intermediate Staphylococcus aureus ATCC 700788 measured by liquid dilution method
# [13] = system: Staphylococcus epidermidis; assay: Antibacterial activity against methicillin-resistant Staphylococcus epidermidis MRSE17-6 measured by liquid dilution method
# [14] = system: Staphylococcus epidermidis; assay: Antibacterial activity against methicillin-sensitive Staphylococcus epidermidis MSSE17-3 measured by liquid dilution method
# Staphylococcus aureus [15] = assay: Antibacterial activity against methicillin-resistant Staphylococcus aureus MRSA17-5 measured by liquid dilution method
# Staphylococcus aureus [16] = assay: Antibacterial activity against vancomycin-intermediate Staphylococcus aureus ATCC 700699 measured by liquid dilution method
# Enterococcus faecium [17] = assay: Antibacterial activity against Enterococcus faecium EFM17-1 measured by liquid dilution method
# Staphylococcus aureus [18] = assay: Antibacterial activity against methicillin-resistant Staphylococcus aureus MRSA17-2 measured by liquid dilution method
# Staphylococcus aureus [19] = assay: Antibacterial activity against methicillin-resistant Staphylococcus aureus MRSA17-1 measured by liquid dilution method
# Staphylococcus aureus [20] = assay: Antibacterial activity against methicillin-resistant Staphylococcus aureus ATCC 43300 measured by liquid dilution method
# Staphylococcus aureus [21] = assay: Antibacterial activity against methicillin-resistant Staphylococcus aureus MRSA17-3 measured by liquid dilution method
# Enterococcus faecalis [22] = assay: Antibacterial activity against Enterococcus faecalis ATCC 29212 measured by liquid dilution method
# Staphylococcus aureus [23] = assay: Antibacterial activity against methicillin-sensitive Staphylococcus aureus MSSA17-3 measured by liquid dilution method
# [24] = system: Staphylococcus epidermidis; assay: Antibacterial activity against methicillin-sensitive Staphylococcus epidermidis MSSE17-1 measured by liquid dilution method
# [25] = system: Staphylococcus epidermidis; assay: Antibacterial activity against methicillin-sensitive Staphylococcus epidermidis MSSE17-2 measured by liquid dilution method
# Escherichia coli = assay: Antibacterial activity against Escherichia coli ATCC 25922 measured by liquid dilution method
# Staphylococcus aureus [26] = assay: Antibacterial activity against methicillin-resistant Staphylococcus aureus NRS384 measured by liquid dilution method
compound,measurement,setting,value
CNC1=NC(=O)[C@H]([C@H](C)c2c[nH]c3cccc(Br)c23)O1,MIC,Staphylococcus aureus [1],4 µg/mL
same,MIC,[2],2 µg/mL
same,MIC,Enterococcus faecium [3],> 128 µg/mL
same,MIC,Staphylococcus aureus [4],4 µg/mL
same,MIC,[5],2 µg/mL
same,MIC,Staphylococcus aureus [6],2 µg/mL
same,MIC,Staphylococcus aureus [7],4 µg/mL
same,MIC,Enterococcus faecalis [8],> 128 µg/mL
same,MIC,Staphylococcus aureus [9],2 µg/mL
same,MIC,[10],2 µg/mL
same,MIC,[11],0.5 µg/mL
same,MIC,Staphylococcus aureus [12],2 µg/mL
same,MIC,[13],2 µg/mL
same,MIC,[14],1 µg/mL
same,MIC,Staphylococcus aureus [15],2 µg/mL
same,MIC,Staphylococcus aureus [16],1 µg/mL
same,MIC,Enterococcus faecium [17],> 128 µg/mL
same,MIC,Staphylococcus aureus [18],2 µg/mL
same,MIC,Staphylococcus aureus [19],2 µg/mL
same,MIC,Staphylococcus aureus [20],2 µg/mL
same,MIC,Staphylococcus aureus [21],1 µg/mL
same,MIC,Enterococcus faecalis [22],> 128 µg/mL
same,MIC,Staphylococcus aureus [23],2 µg/mL
same,MIC,[24],1 µg/mL
same,MIC,[25],1 µg/mL
CNC1=NC(=O)[C@@H]([C@@H](C)c2c[nH]c3cccc(F)c23)O1,MIC,Staphylococcus aureus [1],> 128 µg/mL
same,MIC,[2],> 128 µg/mL
same,MIC,Enterococcus faecium [3],> 128 µg/mL
same,MIC,Staphylococcus aureus [4],> 128 µg/mL
same,MIC,[5],> 128 µg/mL
same,MIC,Staphylococcus aureus [6],> 128 µg/mL
same,MIC,Staphylococcus aureus [7],> 128 µg/mL
same,MIC,Enterococcus faecalis [8],> 128 µg/mL
same,MIC,Staphylococcus aureus [9],> 128 µg/mL
same,MIC,[10],> 128 µg/mL
same,MIC,[11],> 128 µg/mL
same,MIC,Staphylococcus aureus [12],> 128 µg/mL
same,MIC,[13],> 128 µg/mL
same,MIC,[14],> 128 µg/mL
same,MIC,Staphylococcus aureus [15],> 128 µg/mL
same,MIC,Staphylococcus aureus [16],> 128 µg/mL
same,MIC,Enterococcus faecium [17],> 128 µg/mL
same,MIC,Staphylococcus aureus [18],> 128 µg/mL
same,MIC,Staphylococcus aureus [19],> 128 µg/mL
same,MIC,Staphylococcus aureus [20],> 128 µg/mL
same,MIC,Staphylococcus aureus [21],> 128 µg/mL
same,MIC,Enterococcus faecalis [22],> 128 µg/mL
same,MIC,Staphylococcus aureus [23],> 128 µg/mL
same,MIC,[24],> 128 µg/mL
same,MIC,[25],> 128 µg/mL
CNC1=NC(=O)[C@@H]([C@@H](C)c2c[nH]c3cccc(Cl)c23)O1,MIC,Staphylococcus aureus [1],64 µg/mL
same,MIC,[2],128 µg/mL
same,MIC,Enterococcus faecium [3],> 128 µg/mL
same,MIC,Staphylococcus aureus [4],64 µg/mL
same,MIC,[5],128 µg/mL
same,MIC,Staphylococcus aureus [6],64 µg/mL
same,MIC,Staphylococcus aureus [7],64 µg/mL
same,MIC,Enterococcus faecalis [8],> 128 µg/mL
same,MIC,Staphylococcus aureus [9],64 µg/mL
same,MIC,[10],64 µg/mL
same,MIC,[11],> 128 µg/mL
same,MIC,Staphylococcus aureus [12],128 µg/mL
same,MIC,[13],64 µg/mL
same,MIC,[14],> 128 µg/mL
same,MIC,Staphylococcus aureus [15],64 µg/mL
same,MIC,Staphylococcus aureus [16],> 128 µg/mL
same,MIC,Enterococcus faecium [17],> 128 µg/mL
same,MIC,Staphylococcus aureus [18],64 µg/mL
same,MIC,Staphylococcus aureus [19],64 µg/mL
same,MIC,Staphylococcus aureus [20],64 µg/mL
same,MIC,Staphylococcus aureus [21],64 µg/mL
same,MIC,Enterococcus faecalis [22],> 128 µg/mL
same,MIC,Staphylococcus aureus [23],64 µg/mL
same,MIC,[24],> 128 µg/mL
same,MIC,[25],> 128 µg/mL
CNC1=NC(=O)[C@@H]([C@@H](C)c2c[nH]c3cccc(Br)c23)O1,MIC,Staphylococcus aureus [1],128 µg/mL
same,MIC,[2],> 128 µg/mL
same,MIC,Enterococcus faecium [3],> 128 µg/mL
same,MIC,Staphylococcus aureus [4],> 128 µg/mL
same,MIC,[5],128 µg/mL
same,MIC,Staphylococcus aureus [6],128 µg/mL
same,MIC,Staphylococcus aureus [7],128 µg/mL
same,MIC,Enterococcus faecalis [8],> 128 µg/mL
same,MIC,Staphylococcus aureus [9],128 µg/mL
same,MIC,[10],128 µg/mL
same,MIC,[11],> 128 µg/mL
same,MIC,Staphylococcus aureus [12],128 µg/mL
same,MIC,[13],128 µg/mL
same,MIC,[14],128 µg/mL
same,MIC,Staphylococcus aureus [15],128 µg/mL
same,MIC,Staphylococcus aureus [16],128 µg/mL
same,MIC,Enterococcus faecium [17],> 128 µg/mL
same,MIC,Staphylococcus aureus [18],128 µg/mL
same,MIC,Staphylococcus aureus [19],128 µg/mL
same,MIC,Staphylococcus aureus [20],128 µg/mL
same,MIC,Staphylococcus aureus [21],64 µg/mL
same,MIC,Enterococcus faecalis [22],> 128 µg/mL
same,MIC,Staphylococcus aureus [23],128 µg/mL
same,MIC,[24],128 µg/mL
same,MIC,[25],64 µg/mL
CNC1=NC(=O)[C@@H]([C@@H](C)c2c[nH]c3ccccc23)O1,MIC,Staphylococcus aureus [1],> 128 µg/mL
same,MIC,[2],> 128 µg/mL
same,MIC,Enterococcus faecium [3],> 128 µg/mL
same,MIC,Staphylococcus aureus [4],> 128 µg/mL
same,MIC,[5],> 128 µg/mL
same,MIC,Staphylococcus aureus [6],> 128 µg/mL
same,MIC,Staphylococcus aureus [7],> 128 µg/mL
same,MIC,Enterococcus faecalis [8],> 128 µg/mL
same,MIC,Staphylococcus aureus [9],> 128 µg/mL
same,MIC,[10],> 128 µg/mL
same,MIC,[11],> 128 µg/mL
same,MIC,Staphylococcus aureus [12],> 128 µg/mL
same,MIC,[13],> 128 µg/mL
same,MIC,[14],> 128 µg/mL
same,MIC,Staphylococcus aureus [15],> 128 µg/mL
same,MIC,Staphylococcus aureus [16],> 128 µg/mL
same,MIC,Enterococcus faecium [17],> 128 µg/mL
same,MIC,Staphylococcus aureus [18],> 128 µg/mL
same,MIC,Staphylococcus aureus [19],> 128 µg/mL
same,MIC,Staphylococcus aureus [20],> 128 µg/mL
same,MIC,Staphylococcus aureus [21],> 128 µg/mL
same,MIC,Enterococcus faecalis [22],> 128 µg/mL
same,MIC,Staphylococcus aureus [23],> 128 µg/mL
same,MIC,[24],> 128 µg/mL
same,MIC,[25],> 128 µg/mL
CNC1=NC(=O)C(C(C)c2c[nH]c3ccccc23)S1 (racemic),MIC,Escherichia coli,> 128 µg/mL
same,MIC,Staphylococcus aureus [4],4 µg/mL
same,MIC,Staphylococcus aureus [26],> 128 µg/mL
CNC1=NC(=O)C(C(C)c2c[nH]c3cccc(Cl)c23)O1 (racemic),MIC,Escherichia coli,128 µg/mL
same,MIC,Staphylococcus aureus [4],1 µg/mL
same,MIC,Staphylococcus aureus [26],2 µg/mL
CNC1=NC(=O)C(C(C)c2c[nH]c3ccccc23)O1 (racemic),MIC,Escherichia coli,1 µg/mL
same,MIC,Staphylococcus aureus [4],1 µg/mL
same,MIC,Staphylococcus aureus [26],1 µg/mL
CNC1=NC(=O)C(C(C)c2c[nH]c3cccc(N4CCCC4)c23)O1 (racemic),MIC,Escherichia coli,> 128 µg/mL
same,MIC,Staphylococcus aureus [4],128 µg/mL
same,MIC,Staphylococcus aureus [26],> 128 µg/mL
